Experimental data reported in ChEMBL document CHEMBL4376861, “Docking Finds GPCR Ligands in Dark Chemical Matter” (J Med Chem, 2020).

Tests used:
Adenosine receptor A2a [1] = biological target: T1, Adenosine receptor A2a (Homo sapiens, UniProt P29274); test: Displacement of [3H]ZM241385 from adenosine A2A receptor in human HeLa cell membranes at 10 uM incubated for 30 mins by scintillation counting method relative to control
D(4) dopamine receptor = biological target: T2, D(4) dopamine receptor (Homo sapiens, UniProt P21917); test: Displacement of [3H]spiperone from human dopamine D4 receptor expressed in cell membranes incubated for 60 mins by scintillation counting method
T2 sequence (P21917 whole entry): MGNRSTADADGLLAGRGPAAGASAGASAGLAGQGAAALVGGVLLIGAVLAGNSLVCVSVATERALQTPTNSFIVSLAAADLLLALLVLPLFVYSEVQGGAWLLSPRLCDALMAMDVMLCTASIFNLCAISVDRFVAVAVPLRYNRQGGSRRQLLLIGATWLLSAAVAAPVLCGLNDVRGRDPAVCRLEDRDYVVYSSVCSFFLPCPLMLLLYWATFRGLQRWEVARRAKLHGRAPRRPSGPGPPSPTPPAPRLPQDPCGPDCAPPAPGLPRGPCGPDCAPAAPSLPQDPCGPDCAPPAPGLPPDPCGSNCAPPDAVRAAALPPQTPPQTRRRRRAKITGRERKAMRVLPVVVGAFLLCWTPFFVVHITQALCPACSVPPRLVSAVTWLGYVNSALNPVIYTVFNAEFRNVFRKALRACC

[2] = biological target: T3, Adenosine receptor A1 (Homo sapiens) (UniProt P30542); test: Displacement of [3H]DPCPX from human adenosine […] receptor expressed in […] cell membranes at 10 uM incubated for 60 mins by scintillation counting method relative to control
T3 sequence (whole entry): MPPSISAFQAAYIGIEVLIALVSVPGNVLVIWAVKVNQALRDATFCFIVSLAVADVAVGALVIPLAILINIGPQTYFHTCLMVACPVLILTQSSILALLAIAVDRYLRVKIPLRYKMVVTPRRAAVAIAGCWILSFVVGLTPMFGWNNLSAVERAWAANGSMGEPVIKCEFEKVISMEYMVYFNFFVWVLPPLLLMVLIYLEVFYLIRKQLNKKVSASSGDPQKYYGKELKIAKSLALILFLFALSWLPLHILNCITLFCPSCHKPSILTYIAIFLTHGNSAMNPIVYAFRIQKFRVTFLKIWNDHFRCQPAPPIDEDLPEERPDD

D(3) dopamine receptor [3] = biological target: T4, D(3) dopamine receptor (Homo sapiens, UniProt P35462); test: Displacement of [3H]spiperone from human dopamine D3 receptor expressed in cell membranes incubated for 60 mins by scintillation counting method
Adenosine receptor A2a [4] = biological target: T1, Adenosine receptor A2a; test: Displacement of [3H]ZM241385 from adenosine A2A receptor in human HeLa cell membranes incubated for 30 mins by scintillation counting method
[5] = biological target: T5, D(4) dopamine receptor (Homo sapiens) (UniProt P21917); test: Displacement of [3H]spiperone from human dopamine D4 receptor expressed in cell membranes at 10 uM incubated for 60 mins by scintillation counting method relative to control
T5 sequence (whole entry): T2 sequence (P21917 whole entry)

Adenosine receptor A1 = biological target: T6, Adenosine receptor A1 (Homo sapiens, UniProt P30542); test: Displacement of [3H]DPCPX from human adenosine […] receptor expressed in […] cell membranes incubated for 60 mins by scintillation counting method
T6 sequence (P30542 whole entry): T3 sequence (whole entry)

D(3) dopamine receptor [6] = biological target: T4, D(3) dopamine receptor; test: Displacement of [3H]spiperone from human dopamine D3 receptor expressed in cell membranes at 10 uM incubated for 60 mins by scintillation counting method

T4 sequence (P35462 whole entry): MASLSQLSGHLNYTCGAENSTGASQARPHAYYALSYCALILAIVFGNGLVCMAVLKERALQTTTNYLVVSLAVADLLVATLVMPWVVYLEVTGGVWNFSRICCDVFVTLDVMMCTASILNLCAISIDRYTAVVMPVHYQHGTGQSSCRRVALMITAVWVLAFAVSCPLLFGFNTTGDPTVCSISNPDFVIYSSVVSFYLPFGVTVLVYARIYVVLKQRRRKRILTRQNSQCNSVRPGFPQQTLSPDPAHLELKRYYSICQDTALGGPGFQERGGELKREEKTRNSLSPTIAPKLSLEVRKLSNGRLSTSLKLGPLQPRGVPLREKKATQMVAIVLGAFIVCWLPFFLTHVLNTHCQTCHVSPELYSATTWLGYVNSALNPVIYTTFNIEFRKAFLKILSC
T1 sequence (P29274 whole entry): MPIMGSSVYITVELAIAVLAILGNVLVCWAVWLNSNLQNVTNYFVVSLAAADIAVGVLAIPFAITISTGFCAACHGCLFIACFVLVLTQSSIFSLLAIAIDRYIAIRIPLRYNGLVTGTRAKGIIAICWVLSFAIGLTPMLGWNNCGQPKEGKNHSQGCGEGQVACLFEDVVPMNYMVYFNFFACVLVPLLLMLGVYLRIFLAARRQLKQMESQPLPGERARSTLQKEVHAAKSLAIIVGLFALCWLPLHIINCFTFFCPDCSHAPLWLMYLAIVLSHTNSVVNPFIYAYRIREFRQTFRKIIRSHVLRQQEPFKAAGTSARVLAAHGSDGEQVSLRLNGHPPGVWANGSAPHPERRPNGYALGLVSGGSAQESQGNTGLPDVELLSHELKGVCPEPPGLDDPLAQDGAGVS

Structure (SMILES)	inhibition (Adenosine receptor A2a [1]) [%]	Ki (D(4) dopamine receptor) [nM]	inhibition [2] [%]	Ki (D(3) dopamine receptor [3]) [nM]	Ki (Adenosine receptor A2a [4]) [nM]	inhibition [5] [%]	Ki (Adenosine receptor A1) [nM]	inhibition (D(3) dopamine receptor [6]) [%]
Cc1ccc(C(=O)C2CCN(CC(=O)NC3CCCC3)CC2)cc1	7	420	19	11000	–	–	–	–
Cc1cccc2cc(CNCc3ccccc3)c(Cl)nc12	13	550	13	1600	–	–	–	–
Nc1nc(-c2ccccc2)nn1C(=O)c1ccco1	–	–	–	–	130	7	36	4
CCOC(=O)c1nc(N)c(=O)n(-c2ccccc2)n1	–	–	–	–	4900	12	2200	6
